Data set [1] deals with PD-1 expression on CD3+CD4+ cells. In words: PD-1 expression on CD4+ T-cells in PBMC, flow cytometry. The format is cell-based, human. As for the experimental part:
For cytokine and PD-1 assessment experiments freshly isolated peripheral blood mononuclear cell (PBMC) purchased from the Human Immunology Core Facility of The University of Pennsylvania School of Medicine (Philadelphia, PA) were cultured in RPMI medium supplemented with 10 % FBS overnight. Some cultures were treated with SP (10 µM) aprepitant (10 µM) or DMSO (0.001 %, vehicle for aprepitant). Cytokine concentrations were measured in supernatants using multiplex assay 24 h after SP/aprepitant treatment (see below). For PD-1 expression SP and aprepitant were added at day 0 and PD-1 expression was monitored daily for up to 8 days using flow cytometry.
Fig. 6 Aprepitant blocks SP induced PD-1 expression on CD4+ T-cells. PBMC were treated for 7 days with SP and aprepitant as indicated. PD-1 expression was measured by flow cytometry on CD3+CD4+ cells and expressed as percentage of PD-1 positive cells. a Results from representative experiment are shown. First two columns show gaiting strategy. […] Median (spread): control 14.7 (11.1), SP treated 38.4 (60.6), SP + aprepitant treated 7.8 (6.0) TEXT PRINTED IN THE PICTURE: (a) SP: PD1+ 67.1 | (a) SP + aprepitant: PD1+ 9.53 DOUBTS OF THE COPYIST ABOUT THIS PICTURE: SP + aprepitant, PD1+ 9.53: the sign after PD1 looks like '+' or '−' because it touches the gate line / SP + aprepitant, 9.53: small print, so the digits 9, 5 and 3 are not fully certain / The rows 'no staining' (PD1+ 0.079) and 'control' (PD1+ 11.4) were left out because they are not substances
For orientation: A flow cytometer gives signals particle by particle.

For data set [2] the following is noted: 1 μM in DMEM 10 % FBS or MDM cultures, days 0-7.
Protocol: A validated, liquid chromatography-tandem mass spectrometry method was used for the quantification of aprepitant plasma concentration in HIV infected animals and tissue culture media. The method utilized a simple sample-preparation procedure of protein precipitation with methanol. Chromatographic separation was performed on a reversed phase C8 column (Hypersil Gold, 50 mm × 2.1 mm, 3 μm) using a mobile phase composed of acetonitrile and water in 0.5 % formic acid through gradient elution. Electro-spray ionization in positive mode was incorporated in the tandem mass spectrometric detection. The lower limit of quantitation of aprepitant in human plasma was 1 ng/mL.
GAG expression in control (non-treated) cultures were designated as 100 %; *p < 0.0001 between all groups including control were obtained through one-way ANOVA with post-test analysis by Bonferroni’s Multiple Comparison Test indicating significant difference between all groups in pair wise comparison. b Aprepitant added to DMEM 10 % FBS media or MDM cultures at a concentration of 1 μM (0.53 μg/ml) on day 0 and measured on days 0, 1, 2, 3 and 7. Results are presented as mean ± SD for three independent experiments
Another data set has as its system pro-inflammatory markers. Set-up: method as in PMID 25915168. The conditions noted are these: 375 mg daily, 2 weeks, HIV positive individuals; cited from earlier work.
Another data set concerns NK1R. Set-up: method as in PMID 12562139, PMID 15121485. The conditions noted are these: 165 mg dose, PET; cited from earlier work.
Details of data set [3]: species or system Rhesus macaques. Particulars: rhesus monkey, in vivo. How it is done:
For infectivity studies, eight male rhesus macaques were used. Animals were infected intravenously with 50 ng p27 of SIV. […] Aprepitant (commercial capsule contents) was mixed and co-administered with various food preparations to ensure dosing compliance. Food preparations included peanut butter, marshmallow cream and honey, disguised in non-citrus fruit. While formal stability and delivery experiments were not conducted, pilot bioavailability studies confirmed the robustness of aprepitant exposures following food co-administration. The improved bioavailability with food-based dosing in conjunction with oral aprepitant is consistent with preclinical experiments which project simulated exposures based on the commercial nanosized aprepitant formulation. In this evaluation, in silico model predictions were similar to observed in vivo pharmacokinetic data in the fed state; other studies have shown the benefit of complexation strategies to enhance aprepitant solubility/dissolution [30, 31]. […] Videotaped recordings were analyzed using Observer XT® (Noldus IT). Animals were sacrificed and necropsied after 1 year.

A further data set is described as follows: in vivo. Particulars: male, rhesus monkey. How it is done: A pilot study in two groups of three male Rhesus macaques (Macaca mulatta) was conducted to assess the exposure attained following once daily dosing of 80 and 125 mg aprepitant administered orally for 14 days (n = 3 per dose group). The 80 and 125 mg doses correlate with the human doses recommended for CINV patients (125 mg orally 1 h prior to chemotherapy treatment (day 1) and 80 mg orally once daily in the morning on days 2 and 3). On a weight basis these doses represent approximately 8 and 12.5 mg/kg (weight range, 7–12 kg for the rhesus) compared to 1.14 and 1.79 mg/kg human doses (assuming a 70 kg person). […] Blood was collected for dense PK sampling on days 1, 7 and 14 and trough samples were collected prior to dosing on days 3, 5, 7, 11 and 13.
Blood was collected for PK sampling on days 1, 7 and 14 and trough samples were collected prior to dosing on days 3, 5, 7, 11 and 13. Viral loads were assessed at 2 and 4 weeks after infection and monthly thereafter. […] Behavioral data were collected using video cameras installed on walls opposite the caging. Videotaping was scheduled to avoid disruptions in daily feedings, routine husbandry and research procedures. Data were collected pre-infection, 2 and 4 weeks post-infection and monthly thereafter. Videotaped recordings were analyzed using Observer XT® (Noldus IT). Animals were sacrificed and necropsied after 1 year.

“Also recorded” adds a separate entry of the source.

Regarding `C[C@@H](O[C@H]1OCCN(Cc2n[nH]c(=O)[nH]2)[C@H]1c1ccc(F)cc1)c1cc(C(F)(F)F)cc(C(F)(F)F)c1` [aprepitant], the “percentage of PD-1 positive CD4 cells, median (spread)” value in data set [1] (SP + aprepitant treated, 7 days, five experiments, control 14.7 (11.1)) was 7.8 (6.0) %. For the same compound, the “effect on SP induced PD-1 expression” value in data set [1] (aprepitant with SP) is recorded as “blocked”. For the same compound, in data set [2], the “degradation in culture media” value is “little or no degradation”. In addition, in the data set with pro-inflammatory markers, the “levels of pro-inflammatory cytokines (G-CSF, MIP-1α, IL-6, IL-8, TNFα)” value is “reduced levels; also recorded: decrease; also recorded: significant reduction”; the “sCD163, plasma SP and PD-1 expression on CD4 T-cells” value was “decrease; also recorded: reduction”. Besides, the receptor occupancy with NK1R is 97–99%. Moreover, in data set [3], the “systemic and neuropathology, treated versus untreated” value is reported as “no differences”. Moreover, in “in vivo”, the Kp lay within 0.0005 to 0.008; the “decline in trough exposure between days 13 and 14 (extent of induction)” value was “approximately 32.5%”; the “trough plasma concentration reaches steady state” value is at most 10 days.

The record behind these values is PMC4880976, “Pharmacologic rationale for the NK1R antagonist, aprepitant as adjunctive therapy in HIV” (Journal of Translational Medicine, 2016).
